The text below walks through data of ChEMBL document CHEMBL5365409, “Novel series of tunable µOR modulators with enhanced brain penetration for the treatment of opioid use disorder, pain and neuropsychiatric indications” (Bioorg Med Chem Lett, 2023).

The target in series [1] is T1, Mu-type opioid receptor (Homo sapiens, UniProt P35372). The series can be described thus: Antagonist activity at human mu opioid receptor stably transfected in CHO cells assessed as maximal inhibition of DAMGO induced receptor activation by cAMP assay relative to naltrexone. It is filed as functional, cell-based. The following applies: filed as antagonist. (In general: Cyclic AMP is a second messenger, typically raised through Gs and lowered through Gi signalling.)
T1 sequence (P35372 whole entry): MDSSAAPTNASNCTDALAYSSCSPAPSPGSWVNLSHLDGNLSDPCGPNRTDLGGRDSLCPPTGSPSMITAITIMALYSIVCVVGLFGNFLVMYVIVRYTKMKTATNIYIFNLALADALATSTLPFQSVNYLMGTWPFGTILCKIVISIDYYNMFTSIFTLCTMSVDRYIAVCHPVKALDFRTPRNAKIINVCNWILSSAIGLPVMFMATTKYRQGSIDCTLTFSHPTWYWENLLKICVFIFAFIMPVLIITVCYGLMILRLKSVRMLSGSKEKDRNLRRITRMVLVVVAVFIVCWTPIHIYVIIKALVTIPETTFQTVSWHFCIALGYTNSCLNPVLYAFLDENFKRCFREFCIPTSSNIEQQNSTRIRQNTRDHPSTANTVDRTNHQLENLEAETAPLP

Series [2] has as its target T1, Mu-type opioid receptor. The series can be described thus: Antagonist activity at human mu opioid receptor stably transfected in CHO cells assessed as decrease in DAMGO induced receptor activation by cAMP assay. The series is classed as functional, cell-based.
The subject of series [3] is Rattus norvegicus. Briefly: Antianalgesic activity in Sprague-Dawley rat assessed as decrease in (1R,2R)-N-((S)-2-(dimethylamino)-3-(4-hydroxy-2-methylphenyl)propyl)-2-methyl-2-phenylcyclopropane-1-carboxamide induced analgesic effect by measuring withdrawal latency at 10 mg/kg, sc by hot plate assay. It is filed as functional, organism-based. A general note: Hot-plate and tail-flick tests time the reaction to a heat stimulus.

Series [4] deals with T1, Mu-type opioid receptor. Briefly: Agonist activity at human mu opioid receptor stably transfected in CHO cells by cAMP assay. The series is classed as functional, cell-based.
The nature of series [5]: In vivo receptor occupancy at mu opioid receptor in Sprague-Dawley rat brain at 10 mg/kg, sc measured by LC/MS/MS analysis relative to control. The series is classed as functional.
The subject of series [6] is Rattus norvegicus. The series can be described thus: Analgesic activity in Sprague-Dawley rat assessed as increase in withdrawal latency at 10 mg/kg, sc by hot plate assay. The series is classed as functional, organism-based.
For series [7], the system named is Rattus norvegicus. The series can be described thus: Antianalgesic activity in Sprague-Dawley rat assessed as decrease in (1R,2R)-N-((S)-2-(dimethylamino)-3-(4-hydroxy-2-methylphenyl)propyl)-2-methyl-2-phenylcyclopropane-1-carboxamide induced analgesic effect by measuring withdrawal latency at 10 to 20 mg/kg, sc by hot plate assay. It is filed as functional, organism-based. The following applies: dose 10-20 mg/kg.

The nature of series [8]: Plasma concentration in Sprague-Dawley rat at 30 mg/kg, po and measured after 1 hr. The series is classed as ADME, organism-based.
In series [9] the target is T1, Mu-type opioid receptor. The series can be described thus: Agonist activity at human mu opioid receptor stably transfected in CHO cells assessed as maximal response by cAMP assay relative to DAMGO. It is filed as functional, cell-based.
A short description of series [10]: Drug concentration in Sprague-Dawley rat brain at 30 mg/kg, po and measured after 1 hr. It is filed as ADME, organism-based. The following applies: read-out: Ct.
A short description of series [11]: Ratio of drug concentration in brain to plasma of Sprague-Dawley rat at 30 mg/kg, po measured after 1 hr. It is filed as ADME, organism-based.
The test system of series [12] is Rattus norvegicus. Briefly: Analgesic activity in Sprague-Dawley rat assessed as increase in withdrawal latency at 0.3 to 10 mg/kg, sc by hot plate assay. The series is classed as functional, organism-based. The following applies: dose 0.3-10 mg/kg, time <= 90.0 min.

SMILES strings stand for the structures. Active and inactive are the calls of the source. No cut-off for these calls is given here.

On to `CN(C)[C@H](CNC(=O)[C@@H]1C[C@]1(C)c1ccccc1)Cc1ccc(O)cc1Cl`, for which the Imax on Mu-type opioid receptor [1] was found to be 100%. At Mu-type opioid receptor [2], the IC50 was 29 nM. In the series with Rattus norvegicus [3], the result was Active. In addition, the EC50 on Mu-type opioid receptor [4] was greater than 3000 nM. In addition, in [5], the Activity amounted to 70%.
Turning to `CN(C)[C@H](CNC(=O)N[C@H](c1ccccc1)C1CC1)Cc1ccc(O)cc1`, at Mu-type opioid receptor [4], the concentration for a half-maximal effect (EC50) was 7.3 nM.
As to `CN(C)[C@H](CNC(=O)[C@@H]1C[C@]1(C)c1ccccc1)Cc1ccc(O)cc1`, the Imax on Mu-type opioid receptor [1] was 100%. In addition, in the series on Rattus norvegicus [6], the result was inactive. In addition, the IC50 on Mu-type opioid receptor [2] stood at 110 nM. Besides, the result in the series with Rattus norvegicus [7] was Active. Besides, the EC50 at Mu-type opioid receptor [4] was greater than 3000 nM.
Consider `C[C@H](NC(=O)NC[C@H](Cc1ccc(O)cc1)N(C)C)c1ccccc1`, for which the figures for the concentration at 1 h in series [8] and in series [10] were 190 ng/mL and 33 ng/g, respectively. Also, on Mu-type opioid receptor [9] (filed as agonist), the Emax is 48%. Further, in series [11], the BPR came to 17%. This molecule also yielded an EC50 on Mu-type opioid receptor [4] of 21 nM.
In the case of `C[C@@H](OC(=O)NC[C@H](Cc1ccc(O)cc1)N(C)C)c1ccccc1`, the response on Mu-type opioid receptor [4] was half-maximal at 62 nM (EC50).
As to `C[C@@H](CC(=O)NC[C@H](Cc1ccc(O)cc1)N(C)C)c1ccccc1`, the concentration at 1 h in series [8] came out at 16.9 ng/mL; in series [10], 14.4 ng/g. For the same molecule, the Emax at Mu-type opioid receptor [9] (filed as agonist) worked out at 68%. Moreover, the BPR in series [11] was 85%.
Regarding `C[C@H](CC(=O)NC[C@H](Cc1ccc(O)cc1)N(C)C)c1ccccc1`, the concentration at 1 h in series [8] came out at 23.3 ng/mL; in [10] it was 29.2 ng/g. The Emax at Mu-type opioid receptor [9] (filed as agonist) was 68%. The BPR in series [11] was 125%.
With `CN(C)[C@H](CNC(=O)[C@@H]1C[C@@]1(C)c1ccccc1)Cc1ccc(O)cc1`, the concentration at 1 h in series [8] amounted to 3.7 ng/mL; in [10] it was 3.3 ng/g. In the series with Rattus norvegicus [12], the Activity entry was “Dose-Dependent Effect”. In addition, on Mu-type opioid receptor [9] (filed as agonist), the Emax was 90%. For the same molecule, the BPR in series [11] worked out at 89%. This molecule came in with an EC50 on Mu-type opioid receptor [4] of 0.87 nM.
In the case of `CN(C)[C@H](CNC(=O)[C@H]1C[C@]1(C)c1ccccc1)Cc1ccc(O)cc1`, the Imax on Mu-type opioid receptor [1] amounted to 100%. For the same molecule, the 50% inhibitory concentration (IC50) on Mu-type opioid receptor [2] stood at 210 nM. The molecule also showed an EC50 at Mu-type opioid receptor [4] greater than 3000 nM.
Molecule `CN(C)[C@@H](CNC(=O)N[C@@H](c1ccccc1)C1CC1)Cc1ccc(O)cc1` returned an EC50 on Mu-type opioid receptor [4] of 243 nM.
In the case of `C[C@@H](CC(=O)NC[C@H](Cc1c(F)cc(O)cc1F)N(C)C)c1ccccc1`, the concentration at 1 h in series [8] turned out to be 5.4 ng/mL; in series [10] it was 3.9 ng/g. Further, the maximal response (Emax) at Mu-type opioid receptor [9] was determined as 33%. In series [11], the BPR was 72%.
On to `CN(C)[C@H](CNC(=O)O[C@H](c1ccccc1)C1CC1)Cc1ccc(O)cc1`, for which the Emax at Mu-type opioid receptor [9] turned out to be 26%. This molecule also had an EC50 on Mu-type opioid receptor [4] of 770 nM.
For `CN(C)[C@H](CNC(=O)N[C@@H](c1ccccc1)C1CC1)Cc1ccc(O)cc1`, on Mu-type opioid receptor [4], a half-maximal response (EC50) required 104 nM.
Regarding `CN(C)[C@H](CNC(=O)[C@H]1C[C@@]1(C)c1ccccc1)Cc1ccc(O)cc1`, the IC50 at Mu-type opioid receptor [2] was greater than 3000 nM. The same molecule registered an EC50 at Mu-type opioid receptor [4] greater than 3000 nM.
In the case of `C[C@H](OC(=O)NC[C@H](Cc1ccc(O)cc1)N(C)C)c1ccccc1`, the concentration at 1 h in series [8] worked out at 149 ng/mL; in series [10], 481 ng/g. Moreover, the BPR in series [11] came to 323%. Besides, the EC50 at Mu-type opioid receptor [4] was found to be 180 nM.
As for `Cc1cc(O)cc(C)c1C[C@@H](CNC(=O)[C@@H]1C[C@@]1(C)c1ccccc1)N(C)C`, the Emax on Mu-type opioid receptor [9] came to 27%. For the same molecule, the outcome in the series with Rattus norvegicus [6] was inactive. The result with Rattus norvegicus [7] was Active. This molecule gave an EC50 at Mu-type opioid receptor [4] of 2 nM.
Take `Cc1cc(O)ccc1C[C@@H](CNC(=O)[C@@H]1C[C@@]1(C)c1ccccc1)N(C)C`: the Emax on Mu-type opioid receptor [9] (filed as agonist) was found to be 100%. For the same molecule, at Mu-type opioid receptor [4], the 50% effective concentration (EC50) amounted to 0.33 nM.
`C[C@H](OC(=O)NC[C@@H](Cc1ccc(O)cc1)N(C)C)c1ccccc1` yielded a concentration for a half-maximal effect (EC50) on Mu-type opioid receptor [4] greater than 3000 nM.
At Mu-type opioid receptor [4], `CN(C)[C@@H](CNC(=O)N[C@H](c1ccccc1)C1CC1)Cc1ccc(O)cc1` had an EC50 of 346 nM.
With `C[C@@H](OC(=O)NC[C@@H](Cc1ccc(O)cc1)N(C)C)c1ccccc1`, the response at Mu-type opioid receptor [4] was half-maximal at 950 nM (EC50).

What is called IC50 is the concentration that inhibits the measured activity by half. By EC50 is commonly meant the concentration giving half of the maximal effect. Read a low EC50 as a more potent agent. In general, Emax refers to the greatest response seen or fitted, relative to the assay's reference.
